For one assay, the system named is hepatocytes. As to conditions: cited from earlier work; for glucose output: glucagon stimulated.
In a further assay the test system is db/db and ob/ob mice. As to conditions: db/db and ob/ob mice following treatment; cited from earlier work.
For assay [1], the target named is T1, Human recombinant liver glycogen phosphorylase a (hrl GPa) (Homo sapiens, UniProt P06737).
T1 sequence (P06737 1-847): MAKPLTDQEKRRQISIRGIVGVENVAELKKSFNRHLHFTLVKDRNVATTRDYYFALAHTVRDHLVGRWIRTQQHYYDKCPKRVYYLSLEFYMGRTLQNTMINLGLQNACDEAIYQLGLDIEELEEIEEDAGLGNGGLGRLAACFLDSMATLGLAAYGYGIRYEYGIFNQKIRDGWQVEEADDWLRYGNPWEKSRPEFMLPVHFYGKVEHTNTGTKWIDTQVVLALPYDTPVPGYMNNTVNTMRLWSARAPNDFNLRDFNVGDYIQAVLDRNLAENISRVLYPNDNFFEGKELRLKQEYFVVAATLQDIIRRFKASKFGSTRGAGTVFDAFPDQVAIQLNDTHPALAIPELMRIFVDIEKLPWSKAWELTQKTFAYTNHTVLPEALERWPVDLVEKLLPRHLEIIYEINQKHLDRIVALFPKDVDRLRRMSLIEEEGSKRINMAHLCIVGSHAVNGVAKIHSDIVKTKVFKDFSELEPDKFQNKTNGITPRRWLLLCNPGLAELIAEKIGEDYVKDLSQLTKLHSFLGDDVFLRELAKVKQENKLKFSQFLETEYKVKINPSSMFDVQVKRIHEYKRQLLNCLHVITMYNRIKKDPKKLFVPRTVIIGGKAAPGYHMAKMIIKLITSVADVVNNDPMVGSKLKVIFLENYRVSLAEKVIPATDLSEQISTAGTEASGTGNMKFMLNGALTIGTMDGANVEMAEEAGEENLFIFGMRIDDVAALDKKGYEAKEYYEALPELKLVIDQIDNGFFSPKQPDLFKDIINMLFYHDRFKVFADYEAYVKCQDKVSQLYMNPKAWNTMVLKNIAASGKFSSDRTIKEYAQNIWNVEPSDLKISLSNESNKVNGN
Description: glycogen phosphorylase multienzyme coupled assay (glucose-1-phosphate production from glycogen). The assay is classed as biochemical. As to conditions: hrl GPa 20 nM, 6 hours at 30° C., 8 mM glucose. How it is done: The activity of the compounds is determined by measuring the inhibitory effect of the compounds on glycogen degradation, the production of glucose-1-phosphate from glycogen is monitored by the multienzyme coupled assay, as described in EP 0 846 464 A2, general method of Pesce et al (Pesce, M A, Bodourian, S H, Harris, R C, and Nicholson, J F (1977) Clinical Chemistry 23, […]). The reactions were in 384 well microplate format in a volume of 50 μl. The change in fluorescence due to the conversion of the co-factor NAD to NADH is measured at 340 nm excitation, 465 nm emission in a Tecan Ultra Multifunctional Microplate Reader. The reaction is in 50 mM HEPES, 3.5 mM KH2PO4, 2.5 mM MgCl2, 2.5 mM ethylene glycol-bis(b-aminoethyl ether) N,N,N′N′-tetraacetic acid, 100 mM KCl, 8 mM D-(+)-glucose pH7.2, containing 0.5 mM dithiothreitol, the assay buffer solution. Human recombinant liver glycogen phosphorylase a (hrl GPa) 20 nM is pre-incubated in assay buffer solution with 6.25 mM NAD, 1.25 mg type III glycogen at 1.25 mg ml^−1 the reagent buffer, for 30 minutes. […] The non-inhibited activity of GPa is measured in the presence of 10 μl 15% DMSO in assay buffer solution and maximum inhibition measured in the presence of 5 mgs ml^−1 N-ethylmaleimide. […] Relative Fluoresence Units (RFUs) are measured at 340 nm excitation, 465 nm emission. […]
Activity is calculated as follows:—

The next assay deals with conscious dogs. To be noted: following a glucagon challenge; cited from earlier work.

For `CN(C)C(=O)[C@H](O)[C@H](Cc1ccccc1)NC(=O)c1cc2cc(Cl)ccc2[nH]1` [CP91149], in the assay with hepatocytes, the glucagon stimulated glycogenolysis result is listed as “reduce” and the glucose output entry is listed as “reduce”. The plasma glucose concentration result in the assay on db/db and ob/ob mice is “reduced, in a dose related manner”.

On to `O=C(O)COC[C@@H]1c2ccccc2C[C@H]1NC(=O)c1cc2cc(F)ccc2[nH]1` [Example 2, [((1R,2R)-2-{[(5-Fluoro-1H-indol-2-yl)carbonyl]amino}-2,3-dihydro-1H-inden-1-yl)methoxy]acetic acid], for which the IC50 (usually the concentration that inhibits the measured activity by half) in assay [1] was 1670 nM.

As to `O=C(O)C[C@@H]1c2ccccc2C[C@H]1NC(=O)c1cc2cc(F)ccc2[nH]1` [Example 5, ((1R,2R)-2-{[(5-Fluoro-1H-indol-2-yl)carbonyl]amino}-2,3-dihydro-1H-inden-1-yl)acetic acid], the IC50 in assay [1] came to 161 nM.

As for `O=C(N[C@@H](Cc1ccc(F)cc1)C(=O)N1CCC(O)CC1)c1cc2cc(Cl)ccc2[nH]1` [CP320626], in the assay with hepatocytes, the glucagon stimulated glycogenolysis entry was “reduce” and the glucose output entry is on record as “reduce”. Also, the plasma glucose concentration entry in the assay on db/db and ob/ob mice is “reduced, in a dose related manner”.

As to `CCN1C(C)=C(C(=O)OC(C)C)C(c2ccccc2Cl)C2=C1COC2=O` (stereo not shown) [Bay R 3401], in the assay on conscious dogs, the arterial plasma glucose result is reported as “reduced significantly” and the hepatic glucose output entry is given as “reduced significantly”.

These data come from US20090124682A1, “Indan-Amide Derivatives with Glycogen Phosphorylase Inhibitory Activity” (priority 2005, published 2009).
